Source: patent EP2739618B1, “QUINAZOLINE COMPOUNDS AS SERINE/THREONINE KINASE INHIBITORS” (Array Biopharma, Inc., priority 2011, dated 2013)

Each molecule was assayed against T1, human ERK-2 (Mitogen Activated Kinase 1) (Homo sapiens, UniProt P28482) (assay: ERK-2 Enzymatic Assay). Conditions: TABLE I; 5nM ERK-2 enzyme, 25µM ATP, S/T17 peptide substrate; single assay or mean of multiple assays.
T1 construct: N-terminal 6-His fusion protein in E. coli and corresponding to aa 8-360; 6-His (N); made in house; host or cells: E. coli
T1 sequence (P28482 8-360): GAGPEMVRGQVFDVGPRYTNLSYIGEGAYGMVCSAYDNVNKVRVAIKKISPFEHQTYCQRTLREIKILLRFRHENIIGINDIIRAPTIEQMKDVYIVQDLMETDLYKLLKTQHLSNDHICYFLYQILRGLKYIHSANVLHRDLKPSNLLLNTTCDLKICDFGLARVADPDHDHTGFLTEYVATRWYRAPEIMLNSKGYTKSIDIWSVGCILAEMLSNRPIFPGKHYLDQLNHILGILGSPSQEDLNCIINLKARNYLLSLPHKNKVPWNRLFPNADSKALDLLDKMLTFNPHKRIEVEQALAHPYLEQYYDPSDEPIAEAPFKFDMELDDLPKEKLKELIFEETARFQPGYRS
Type: biochemical
Procedure: Compounds were tested in an enzymatic assay using human ERK-2 (Mitogen Activated Kinase 1), recombinantly expressed as an N-terminal 6-His fusion protein in E. coli and corresponding to aa 8-360. The substrate used was the fluorescent Omnia peptide S/T17 (Invitrogen of Carlsbad, CA; Cat. KNZ1171C). Test compounds were diluted in DMSO in 3-fold serial dilutions at 100x final concentrations. […] The assay was run at ambient temperature in a white 384-well polypropylene plate (Nunc, Inc of Naperville, IL; Cat. 267462) collecting data every 50 seconds for approximately 30 minutes on an Envision plate reader (PerkinElmer, Inc. of Waltham, MA); Excitation 340 nm/Emission 495 nm. The data collected from each well was fit to a straight line and the resulting rates were used to calculate percent of control. Percent of control was plotted against compound concentration and IC50 values were determined using a four-parameter fit. Representative data is in TABLE I and TABLE II. The reported IC50 may be from a single assay or the mean of multiple assays.

Molecule	IC50 [nM]
2-(tetrahydro-pyran-4-ylamino)-quinazoline-7-carboxylic acid [(R)-(4-cyano-3-fluoro-phenyl)-(1-methyl-1H-pyrazol-4-yl)-methyl]-amide [Compound I-45]	22
O=C(N[C@H](c1ccc(F)c(Cl)c1)[C@@H]1CCNC1)c1ccc2cnc(NC3CCOCC3)nc2c1 (stereo in doubt) [Compound I-9, 2-(tetrahydropyran-4-ylamino)-quinazoline-7-carboxylic acid [(R)-(3-chloro-4-fluoro-phenyl)-(S)-pyrrolidin-3-yl-methyl]-amide]	6.7
O=C(N[C@@H](c1ccc(F)c(Cl)c1)[C@H]1CCNC1)c1ccc2cnc(NC3CCOCC3)nc2c1 (stereo in doubt) [Compound I-11, 2-(tetrahydropyran-4-ylamino)-quinazoline-7-carboxylic acid [(S)-(3-chloro-4-fluoro-phenyl)-(R)-pyrrolidin-3-yl-methyl]-amide]	6.4
COc1ccc([C@@H](NC(=O)c2ccc3cnc(NC4CCOCC4)nc3c2)[C@@H]2CCCN2)cc1F (stereo in doubt) [Compound I-24, 2-(tetrahydropyran-4-ylamino)-quinazoline-7-carboxylic acid [(S)-(3-fluoro-4-methoxy-phenyl)-(R)-pyrrolidin-2-yl-methyl]-amide]	8.2
COc1ccc([C@@H](NC(=O)c2cc(F)c3cnc(NC4CCOCC4)nc3c2)[C@@H]2CCCN2)cc1F (stereo in doubt) [Compound I-25, 5-fluoro-2-(tetrahydropyran-4-ylamino)-quinazoline-7-carboxylic acid [(S)-(3-fluoro-4-methoxy-phenyl)-(R)-pyrrolidin-2-yl-methyl]-amide]	9
Cn1cc([C@@H](NC(=O)c2ccc3cnc(NC4CCOCC4)nc3c2)c2ccc(C#N)c(Cl)c2)cn1 (stereo in doubt) [Compound I-50, (S)-N-((3-chloro-4-cyanophenyl)(1-methyl-1H-pyrazol-4-yl)methyl)-2-(tetrahydro-2H-pyran-4-ylamino)quinazoline-7-carboxamide]	25
Cn1ccc(C(NC(=O)c2ccc3cnc(NC4CCOCC4)nc3c2)c2ccc(Cl)c(F)c2)n1 (centres unmarked) [Compound I-4, 2-(tetrahydropyran-4-ylamino)-quinazoline-7-carboxylic acid [(4-chloro-3-fluoro-phenyl)-(1-methyl-1H-pyrazol-3-yl)-methyl]-amide]	5
O=C(N[C@@H](c1ccc(F)c(Cl)c1)[C@@H]1CCNC1)c1ccc2cnc(NC3CCOCC3)nc2c1 [Compound I-8, 2-(tetrahydropyran-4-ylamino)-quinazoline-7-carboxylic acid [(R)-(3-chloro-4-fluoro-phenyl)-(R)-pyrrolidin-3-yl-methyl]-amide]	6.7
O=C(N[C@H](c1ccc(F)c(Cl)c1)[C@H]1CCNC1)c1ccc2cnc(NC3CCOCC3)nc2c1 [Compound I-10, 2-(tetrahydropyran-4-ylamino)-quinazoline-7-carboxylic acid [(S)-(3-chloro-4-fluoro-phenyl)-(S)-pyrrolidin-3-yl-methyl]-amide]	5.4
CCn1ccc([C@H](NC(=O)c2ccc3cnc(NC4CCOCC4)nc3c2)c2ccc(Cl)c(F)c2)n1 [Compound I-18, 2-(tetrahydropyran-4-ylamino)-quinazoline-7-carboxylic acid [(R)-(4-chloro-3-fluoro-phenyl)-(1-ethyl-1H-pyrazol-3-yl)-methyl]-amide]	12.8
Cn1ccc([C@H](NC(=O)c2ccc3cnc(NC4CCOCC4)nc3c2)c2ccc(Cl)c(F)c2)n1 [Compound I-21, 2-(tetrahydropyran-4-ylamino)-quinazoline-7-carboxylic acid [(R)-(4-chloro-3-fluoro-phenyl)-(1-methyl-1H-pyrazol-3-yl)-methyl]-amide]	69
Cn1cc([C@@H](NC(=O)c2ccc3cnc(N[C@@H]4CCOC[C@@H]4F)nc3c2)c2ccc(Cl)c(F)c2)cn1 [Compound I-27, 2-((3R,4R)-3-fluoro-tetrahydropyran-4-ylamino)-quinazoline-7-carboxylic acid [(S)-(4-chloro-3-fluoro-phenyl)-(1-methyl-1H-pyrazol-4-yl)-methyl]-amide]	15.8

Now those with a lower IC50, led by results:

IC50 [nM]	Molecule
4	COc1ccc([C@H](NC(=O)c2cc(F)c3cnc(N[C@@H]4CCOC4)nc3c2)c2cnn(C)c2)cc1F (stereo in doubt) [Compound I-62, 5-Fluoro-N-((S)-(3-fluoro-4-methoxyphenyl)(1-methyl-1H-pyrazol-4-yl)methyl)-2-((R)-tetrahydrofuran-3-ylamino)quinazoline-7-carboxamide]
3.8	Cn1cc([C@@H](NC(=O)c2ccc3cnc(N[C@H]4CCOC[C@@H]4F)nc3c2)c2ccc(Cl)c(F)c2)cn1 [Compound I-29, 2-((3R,4S)-3-fluoro-tetrahydropyran-4-ylamino)-quinazoline-7-carboxylic acid [(S)-(4-chloro-3-fluoro-phenyl)-(1-methyl-1H-pyrazol-4-yl)-methyl]-amide]
2.8	CN1CCC[C@@H]1[C@@H](NC(=O)c1ccc2cnc(NC3CCOCC3)nc2c1)c1ccc(C(F)(F)F)c(F)c1 [Compound I-17, 2-(Tetrahydropyran-4-ylamino)-quinazoline-7-carboxylic acid [(S)-(3-fluoro-4-trifluoromethyl-phenyl)-((R)-1-methyl-pyrrolidin-2-yl)-methyl]-amide]
2.3	O=C(N[C@H](c1ccc(Cl)c(F)c1)[C@@H]1CCCN1)c1ccc2cnc(NC3CCOCC3)nc2c1 (stereo in doubt) [Compound I-23, 2-(tetrahydropyran-4-ylamino)-quinazoline-7-carboxylic acid [(S)-(4-chloro-3-fluoro-phenyl)-(R)-pyrrolidin-2-yl-methyl]-amide]
2	COc1ccc([C@@H](NC(=O)c2ccc3cnc(N[C@H](C)C4CC4)nc3c2)[C@@H]2CCCN2)cc1F (stereo in doubt) [Compound I-26, 2-((R)-1-cyclopropyl-ethylamino)-quinazoline-7-carboxylic acid [(S)-(3-fluoro-4-methoxy-phenyl)-(R)-pyrrolidin-2-yl-methyl]-amide]
2	Cn1ccc([C@@H](NC(=O)c2ccc3cnc(NC4CCOCC4)nc3c2)c2ccc(Cl)c(F)c2)n1 [Compound I-20, 2-(tetrahydropyran-4-ylamino)-quinazoline-7-carboxylic acid [(S)-(4-chloro-3-fluoro-phenyl)-(1-methyl-1H-pyrazol-3-yl)-methyl]-amide]
1.8	O=C(N[C@H](c1ccc(C(F)(F)F)c(F)c1)[C@@H]1CCCN1)c1ccc2cnc(NC3CCOCC3)nc2c1 (stereo in doubt) [Compound I-7, 2-(tetrahydropyran-4-ylamino)-quinazoline-7-carboxylic acid [(S)-(3-fluoro-4-trifluoromethyl-phenyl)-(R)-pyrrolidin-2-yl-methyl]-amide]
1.1	Cn1cc([C@H](NC(=O)c2ccc3cnc(NC4CCOCC4)nc3c2)c2ccc(C#N)c(Cl)c2)cn1 (stereo in doubt) [Compound I-48, (R)-N-((3-chloro-4-cyanophenyl)(1-methyl-1H-pyrazol-4-yl)methyl)-2-(tetrahydro-2H-pyran-4-ylamino)quinazoline-7-carboxamide]
